Here are results for ten compounds from PubChem BioAssay (NCI).

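Exposure lasted 48 hours, with cells grown in 96-well plates and compounds tested at five concentrations. GI50 = concentration required for 50% inhibition of growth. The concentration for full growth arrest is given as TGI.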 Where only a bound is given, the exact number is not on record here.

Some test systems named below: 786-0 renal; A549 NSCLC; COLO 205 colon; EKVX NSCLC; HCT-116 colon; HT29 colon; NCI-H522 lung; OVCAR-8 ovarian; RPMI-8226 leukemia; IGROV1 ovarian.
Common to all, as to assay: DTP human tumour cell line panel, 48 h

A word on the TGI: it is the concentration at which net growth stops. A high value points to lower sensitivity of the cells. With `N#CC(C(=N/NC(N)=S)/C(=N\NC(N)=S)C(C#N)c1ccccc1)c1ccccc1` (stereo not drawn), the TGI with 786-0 renal, with A549 NSCLC, with COLO 205 colon, in the test with EKVX NSCLC, in the test on HCT-116 colon and in the test on HT29 colon was over 10 µM throughout. The TGI with NCI-H522 lung, with OVCAR-8 ovarian and in the test with RPMI-8226 leukemia was over 10 µM throughout.

The term GI50 denotes the concentration that inhibits growth by half. In the case of `CC(C)(C)c1ccc(NC(=O)c2cc(=O)c3ccccc3[nH]2)c(C(C)(C)C)c1O`, the GI50 in the test on 786-0 renal is 3.05 µM; in the test on A549 NSCLC it was 3.23 µM; in the test with COLO 205 colon, 3.8 µM; in the test with HCT-116 colon, 3.71 µM; in the test with HT29 colon, 2.21 µM; in the test on IGROV1 ovarian, 10.4 µM. The GI50 is 8.04 µM in the test with NCI-H522 lung, 3.28 µM in the test with OVCAR-8 ovarian and 2.89 µM in the test with RPMI-8226 leukemia. Further, the TGI in the test with 786-0 renal turned out to be 12.1 µM; with A549 NSCLC, 12.6 µM; with COLO 205 colon it was 10.5 µM; in the test on HCT-116 colon it was 13.4 µM; in the test on HT29 colon, 4.78 µM; with IGROV1 ovarian it was 22.7 µM. Also, the TGI with NCI-H522 lung was found to be 20.8 µM; in the test with OVCAR-8 ovarian, 12.2 µM; in the test on RPMI-8226 leukemia, 14.1 µM.

In the case of `COc1cc2c(c(OC)c1OC)C(=O)c1c-2n(CCCN)c(=O)c2cc([N+](=O)[O-])ccc12`, the GI50 with 786-0 renal was 0.481 µM; with COLO 205 colon, 1.22 µM; in the test with EKVX NSCLC, 3.02 µM; with HCT-116 colon it was 0.128 µM; in the test on HT29 colon, 0.301 µM; with IGROV1 ovarian, 1.43 µM. Besides, the GI50 in the test with NCI-H522 lung was 5.79 µM; in the test on RPMI-8226 leukemia, 1.21 µM. The TGI was 1.04 µM in the test on 786-0 renal; 6.3 µM with COLO 205 colon; 8.32 µM in the test on EKVX NSCLC; 0.274 µM in the test with HCT-116 colon; 3.05 µM in the test with IGROV1 ovarian; 14 µM in the test on NCI-H522 lung. Also, the TGI in the test with RPMI-8226 leukemia amounted to 3.32 µM.

Turning to `CC(=O)OC1CC(C)c2c1ncnc2N1CCN(C(=O)OC(C)(C)C)CC1` (stereo not drawn), the GI50 with 786-0 renal is 56.2 µM; with A549 NSCLC it was 44.2 µM; in the test with COLO 205 colon, 38.5 µM; with HCT-116 colon, 38.1 µM; in the test with HT29 colon it was 37.1 µM; with IGROV1 ovarian, 92.5 µM. Further, the GI50 in the test on NCI-H522 lung is 22.6 µM; with OVCAR-8 ovarian, 54.3 µM; with RPMI-8226 leukemia, 35.1 µM. Besides, the TGI is over 100 µM in the test with 786-0 renal; over 100 µM with A549 NSCLC; over 100 µM in the test with COLO 205 colon; over 100 µM in the test with HCT-116 colon; 88.5 µM in the test on HT29 colon; over 100 µM in the test on IGROV1 ovarian. The TGI in the test on NCI-H522 lung was 47.2 µM; with OVCAR-8 ovarian, over 100 µM; in the test on RPMI-8226 leukemia, over 100 µM.

Consider `C#Cc1cccc(N2C(=O)CC(=P(c3ccccc3)(c3ccccc3)c3ccccc3)C2=O)c1`, for which the TGI with 786-0 renal was 75.7 µM; in the test with A549 NSCLC, over 100 µM; with COLO 205 colon, over 100 µM; in the test with EKVX NSCLC, over 100 µM; with HCT-116 colon it was over 100 µM; in the test with HT29 colon, over 100 µM. Also, the results for the TGI in the test on NCI-H522 lung, in the test with OVCAR-8 ovarian and in the test on RPMI-8226 leukemia were over 100 µM, over 100 µM and 63.2 µM, respectively.

In the case of `Cn1c(-c2c(N)n(Cc3ccc(Cl)cc3)c3nc(C#N)c(C#N)nc23)nc2ccccc21`, the GI50 was 7.69 µM with 786-0 renal; 5.02 µM in the test on A549 NSCLC; 3.13 µM in the test with COLO 205 colon; 7.04 µM in the test on EKVX NSCLC; 8.52 µM in the test with HCT-116 colon; 1.54 µM with IGROV1 ovarian. Further, the results for the GI50 in the test with NCI-H522 lung, in the test with OVCAR-8 ovarian and in the test on RPMI-8226 leukemia were 2.83 µM, 5.37 µM and 1.73 µM, respectively. For the same compound, the total growth inhibition concentration (TGI) in the test on 786-0 renal was 17.4 µM; in the test with A549 NSCLC it was 19.8 µM; in the test with COLO 205 colon, 16.4 µM; in the test with EKVX NSCLC it was 46.1 µM; in the test on HCT-116 colon it was over 50 µM; in the test with IGROV1 ovarian it was 7.71 µM. Moreover, the TGI with NCI-H522 lung is 15.6 µM; in the test on OVCAR-8 ovarian, 23.4 µM; in the test with RPMI-8226 leukemia, over 50 µM.

Consider `Cc1ccc(S(=O)(=O)NC(C)C(=O)O)cc1` (stereo not drawn), for which the TGI with 786-0 renal, in the test on A549 NSCLC, with COLO 205 colon, with EKVX NSCLC, with HT29 colon and with IGROV1 ovarian was over 100 µM throughout. Further, the TGI in the test on NCI-H522 lung, with OVCAR-8 ovarian and in the test with RPMI-8226 leukemia was over 100 µM each time.

As to `NC(N)=NS(=O)(=O)c1ccc(NC(=O)c2ccc(Cl)c3c(Nc4ccc(S(=O)(=O)N=C(N)N)cc4)c4ccccc4nc23)cc1`, the TGI in the test with 786-0 renal, in the test on A549 NSCLC, in the test with COLO 205 colon, in the test with EKVX NSCLC, in the test with HT29 colon and in the test on IGROV1 ovarian was over 100 µM throughout. Moreover, the TGI with NCI-H522 lung, with OVCAR-8 ovarian and with RPMI-8226 leukemia was over 100 µM each time.

As to `c1ccc2c(c1)[Se]c1ccccc1[Se]2`, the TGI in the test with 786-0 renal was over 100 µM; with A549 NSCLC, over 100 µM; in the test with COLO 205 colon, over 100 µM; in the test with HCT-116 colon, 72.4 µM; in the test on HT29 colon it was over 100 µM; in the test on IGROV1 ovarian, over 100 µM. Besides, the TGI in the test with NCI-H522 lung, with OVCAR-8 ovarian and with RPMI-8226 leukemia was over 100 µM each time.

Consider `COC(=O)c1c(C(=O)OC)c(C(=O)OC)c(C(=O)OC)c1C(=O)OC`, for which the TGI in the test on 786-0 renal, in the test on A549 NSCLC, in the test with COLO 205 colon, in the test with EKVX NSCLC, in the test with HT29 colon and in the test with IGROV1 ovarian was over 100 µM in each case. Further, the TGI in the test with NCI-H522 lung, in the test on OVCAR-8 ovarian and in the test on RPMI-8226 leukemia was over 100 µM in each case.
